# Structures can show the parent of a compound that is named as a salt.
# How the values were obtained:
# human alpha2A receptors = target: T1, human alpha2A receptors (Homo sapiens, UniProt P08913); assay: cell-based
# T1 sequence (P08913 1-465): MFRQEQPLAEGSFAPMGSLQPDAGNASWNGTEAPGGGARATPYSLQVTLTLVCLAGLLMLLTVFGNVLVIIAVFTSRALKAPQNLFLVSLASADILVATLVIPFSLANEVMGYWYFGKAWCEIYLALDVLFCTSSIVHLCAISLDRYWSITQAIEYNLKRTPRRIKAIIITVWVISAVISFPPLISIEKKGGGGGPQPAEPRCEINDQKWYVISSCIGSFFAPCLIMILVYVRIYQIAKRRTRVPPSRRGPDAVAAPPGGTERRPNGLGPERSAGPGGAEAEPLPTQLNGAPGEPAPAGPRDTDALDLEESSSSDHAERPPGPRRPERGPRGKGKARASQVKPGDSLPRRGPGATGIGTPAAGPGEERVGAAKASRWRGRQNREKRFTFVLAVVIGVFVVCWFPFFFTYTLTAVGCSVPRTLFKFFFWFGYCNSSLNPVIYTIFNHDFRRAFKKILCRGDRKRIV
# Method: (§1) Experiment 1: Determination of alpha2A and alpha2C Antagonistic Activity In Vitro
# (§2) The growth medium was removed and the cells were incubated with the test compounds and the FLIPR Calcium 6 Assay reagent (Molecular Devices, CA, USA) for 2 h at 37° C. in dark. The test compounds (concentrations in cells 100 pM-10 μM) were dissolved in Probenecid-Ringer consisting of 150 mM NaCl, 3 mM KCl, 1.2 mM MgCl2, 1 mM CaCl2, 5 mM glucose, 20 mM HEPES and 2.5 mM probenecid (pH 7.4 adjusted with 1.0 M NaOH). […] All experiments were performed at 37° C. For agonism measurements the test compounds dissolved in Probenecid-Ringer were applied by FLIPR Tetra at 15 s time point. In order to determine antagonism, the cells were stimulated either with 100 nM adrenaline or noradrenaline and the test compounds were added to the cells 2 h before the experiment with the FLIPR Calcium 6 Assay reagent. […] Typically, there were four replicates at each concentration and six different dose levels. […] The minimum fluorescence value subtracted from the maximum value for each well was used in the calculations. ScreenWorks version 4.0 software was used for analyzing the results. Fitting of the antagonist dose-response results was performed with the free Hill equation and the IC50 values were fitted with IDBS XE software using model 200: y=(A+(B/(1+((x/C)̂D)))), where A is the curve maximum, B the curve minimum and C equals the EC50 value. D is slope factor (Hill). Kb was calculated with the Cheng-Prusoff equation Kb=A/((B/C)+1), where A is the IC50 of antagonist, B the concentration of agonist and C the EC50 of the agonist.
# human alpha2C receptors = target: T2, human alpha2C receptors (Homo sapiens, UniProt P18825); assay: Determination of alpha2C antagonistic activity in vitro (FLIPR calcium assay); conditions: for Kb: Alpha 2C Adrenaline Kb, Kb calculated from IC50 with the Cheng-Prusoff equation, adrenaline as agonist, CHO cells, human alpha2C
# T2 sequence (P18825 1-462): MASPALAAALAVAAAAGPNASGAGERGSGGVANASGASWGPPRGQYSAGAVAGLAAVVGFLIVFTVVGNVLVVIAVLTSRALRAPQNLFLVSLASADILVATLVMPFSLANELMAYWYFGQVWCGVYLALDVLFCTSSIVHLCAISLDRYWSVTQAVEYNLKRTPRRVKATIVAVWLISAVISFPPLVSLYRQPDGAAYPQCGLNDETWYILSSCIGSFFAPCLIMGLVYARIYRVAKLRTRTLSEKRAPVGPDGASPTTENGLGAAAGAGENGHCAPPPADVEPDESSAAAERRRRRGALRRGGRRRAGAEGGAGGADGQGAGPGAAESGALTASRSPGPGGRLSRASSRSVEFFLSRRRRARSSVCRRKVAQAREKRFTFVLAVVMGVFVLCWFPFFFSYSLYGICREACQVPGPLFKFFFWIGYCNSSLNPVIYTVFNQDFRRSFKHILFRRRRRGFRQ
# Method: as §1, §2
IC50 (human alpha2A receptors),Kb (human alpha2A receptors),IC50 (human alpha2C receptors),Kb (human alpha2C receptors),SMILES
> 10 µM,> 449 nM,132 nM,13.3 nM,"O=C1CN(C2COC2)C(=O)N1[C@H]1CCCN(C[C@H]2COc3ccccc3O2)C1 [example 120, 3-((S)-1-(((S)-2,3-Dihydrobenzo[b][1,4]dioxin-2-yl)methyl)-piperidin-3-yl)-1-(oxetan-3-yl)imidazolidine-2,4-dione]"
> 10 µM,> 449 nM,1 nM,0.1 nM,"CC(C)N1C(=O)N([C@H]2CCCN(C[C@H]3COc4ccccc4O3)C2)C(=O)C1(C)C [example 116, 3-((S)-1-(((S)-2,3-Dihydrobenzo[b][1,4]dioxin-2-yl)methyl)-piperidin-3-yl)-1-isopropyl-5,5-dimethylimidazolidine-2,4-dione]"
> 10 µM,> 449 nM,0.11 nM,0.01 nM,"CN1C(=O)N([C@H]2CCCN(C[C@H]3COc4ccccc4O3)C2)CC1(C)C [example 51, 1-((S)-1-(((S)-2,3-Dihydrobenzo[b][1,4]dioxin-2-yl)methyl)piperidin-3-yl)-3,4,4-trimethylimidazolidin-2-one]"
> 10 µM,> 449 nM,2.08 nM,0.21 nM,"CC1C(=O)N([C@H]2CCCN(C[C@H]3COc4ccccc4O3)C2)C(=O)N1C (stereo partly drawn) [example 115, 3-((S)-1-(((S)-2,3-Dihydrobenzo[b][1,4]dioxin-2-yl)methyl)-piperidin-3-yl)-1,5-dimethylimidazolidine-2,4-dione]"
> 10 µM,> 449 nM,0.796 nM,0.08 nM,"CC(C)(C)N1C(=O)C(=O)N([C@H]2CCCN(C[C@H]3COc4ccccc4O3)C2)C1=O [example 134, 1-tert-Butyl-3-((S)-1-(((S)-2,3-dihydrobenzo[b][1,4]dioxin-2-yl)methyl)piperidin-3-yl)imidazolidine-2,4,5-trione]"
> 10 µM,> 449 nM,1.47 nM,0.131 nM,"CN(C)C(=O)CN1C(=O)N([C@H]2CCCN(C[C@H]3COc4ccccc4O3)C2)C(=O)C12CC2 [example 124, 2-(6-((S)-1-(((S)-2,3-Dihydrobenzo[b][1,4]dioxin-2-yl)methyl)-piperidin-3-yl)-5,7-dioxo-4,6-diazaspiro[2.4]heptan-4-yl)-N,N-dimethylacetamide]"

# Continued, compound first:
SMILES,IC50 (human alpha2A receptors),Kb (human alpha2A receptors),IC50 (human alpha2C receptors),Kb (human alpha2C receptors)
"CC(C)N1C(=O)N([C@H]2CCCN(C[C@H]3COc4ccccc4O3)C2)C[C@@H]1c1ccccc1 [example 7, (S)-1-((S)-1-(((S)-2,3-Dihydrobenzo[b][1,4]dioxin-2-yl)methyl)piperidin-3-yl)-3-isopropyl-4-phenylimidazolidin-2-one]",1.73 µM,78 nM,< 0.1 nM,< 0.01 nM
"O=C1c2ccc(F)cc2CN1[C@H]1CCCN(C[C@H]2COc3ccccc3O2)C1 [example 58, 2-((S)-1-(((S)-2,3-Dihydrobenzo[b][1,4]dioxin-2-yl)methyl)piperidin-3-yl)-5-fluoroisoindolin-1-one hydrochloride]",> 10 µM,> 449 nM,0.299 nM,0.03 nM
"CC1(c2ccccc2)NC(=O)N([C@H]2CCCN(C[C@H]3COc4ccccc4O3)C2)C1=O (stereo partly drawn) [example 74, 3-((S)-1-(((S)-2,3-Dihydrobenzo[b][1,4]dioxin-2-yl)methyl)piperidin-3-yl)-5-methyl-5-phenylimidazolidine-2,4-dione]",0.013 µM,1 nM,< 0.1 nM,< 0.01 nM
"Clc1ccc2ncn([C@H]3CCCN(C[C@H]4COc5ccccc5O4)C3)c2c1 [example 89, 6-Chloro-1-((S)-1-(((S)-2,3-dihydrobenzo[b][1,4]dioxin-2-yl)methyl)piperidin-3-yl)-1H-benzo[d]imidazole]",9.46 µM,425 nM,< 0.1 nM,< 0.01 nM
"Cc1nc2ccccc2n1[C@H]1CCCN(C[C@H]2COc3ccccc3O2)C1 [example 150, 1-((S)-1-(((S)-2,3-Dihydrobenzo[b][1,4]dioxin-2-yl)methyl)piperidin-3-yl)-2-methyl-1H-benzo[d]imidazole]",4.48 µM,201 nM,< 0.1 nM,< 0.01 nM
"CCc1nc2ccc(F)cc2n1[C@H]1CCCN(C[C@H]2COc3ccccc3O2)C1 [example 84, 1-((S)-1-(((S)-2,3-Dihydrobenzo[b][1,4]dioxin-2-yl)methyl)piperidin-3-yl)-2-ethyl-6-fluoro-1H-benzo[d]imidazole]",4.33 µM,195 nM,< 0.1 nM,< 0.01 nM
"O=C1C2C3C=CC(C3)C2C(=O)N1[C@H]1CCCN(C[C@H]2COc3ccccc3O2)C1 (stereo partly drawn) [example 34, 2-((S)-1-(((S)-2,3-Dihydrobenzo[b][1,4]dioxin-2-yl)methyl)piperidin-3-yl)-3a,4,7,7a-tetrahydro-1H-4,7-methanoisoindole-1,3(2H)-dione]",6.86 µM,308 nM,0.02 nM,0.002 nM
"CC1(C)CCN([C@H]2CCCN(C[C@H]3COc4ccccc4O3)C2)S1(=O)=O [example 162, 2-((S)-1-(((S)-2,3-Dihydrobenzo[b][1,4]dioxin-2-yl)methyl)piperidin-3-yl)-5,5-dimethylisothiazolidine 1,1-dioxide]",> 10 µM,> 449 nM,6.13 nM,0.62 nM
"CSc1ncc2c(n1)C(=O)N([C@H]1CCCN(C[C@H]3COc4ccccc4O3)C1)C2 [example 12, 6-((S)-1-(((S)-2,3-Dihydrobenzo[b][1,4]dioxin-2-yl)methyl)piperidin-3-yl)-2-(methylthio)-5H-pyrrolo[3,4-d]pyrimidin-7(6H)-one]",> 10 µM,> 449 nM,509 nM,51.2 nM
"O=C1c2ccc(Cl)cc2CN1[C@H]1CCCN(C[C@H]2COc3ccccc3O2)C1 [example 60, 5-Chloro-2-((S)-1-(((S)-2,3-dihydrobenzo[b][1,4]dioxin-2-yl)methyl)piperidin-3-yl)isoindolin-1-one]",> 10 µM,> 449 nM,< 0.1 nM,< 0.01 nM
"Clc1ccc2c(c1)ncn2[C@H]1CCCN(C[C@H]2COc3ccccc3O2)C1 [example 91, 5-Chloro-1-((S)-1-(((S)-2,3-dihydrobenzo[b][1,4]dioxin-2-yl)methyl)piperidin-3-yl)-1H-benzo[d]imidazole]",> 10 µM,> 449 nM,< 0.1 nM,< 0.01 nM
"O=C1c2cccnc2C(=O)N1[C@H]1CCCN(C[C@H]2COc3ccccc3O2)C1 [example 75, 6-((S)-1-(((S)-2,3-Dihydrobenzo[b][1,4]dioxin-2-yl)methyl)piperidin-3-yl)-5H-pyrrolo[3,4-b]pyridine-5,7(6H)-dione]",> 10 µM,> 449 nM,0.95 nM,0.097 nM
"O=C1C(=O)N([C@H]2CCCN(C[C@H]3COc4ccccc4O3)C2)C(=O)N1Cc1ccncc1 [example 140, 1-((S)-1-(((S)-2,3-Dihydrobenzo[b][1,4]dioxin-2-yl)methyl)piperidin-3-yl)-3-(pyridin-4-ylmethyl)imidazolidine-2,4,5-trione]",> 10 µM,> 449 nM,2.19 nM,0.22 nM
